A short description of series [1]: Solubility / formulation behaviour. Type of series: physicochemical. The method, then: The following two formulations are particularly suited to compounds 3.48a and 4.2a and allow their in vivo administration, at concentrations of about 20-100 mg/kg, intravenously: […]
The next series relates to C6 glioblastoma line. The series is described as follows: MTT antiproliferative test, C6. It is filed as cell-based. The settings on record: Rattus norvegicus, read-out: IC50, inhibition of proliferation. The procedure:
(§1) Several cancer cell lines were used for the in vivo or in vitro biological tests: • SNB75 is a human glioblastoma line derived from a primary culture, i.e. derived from a primary malignant cancer tumor. It forms part of the panel of 59 cancer lines referenced by the NCI. Its Cosmic reference number published by the Welcome Trust Sanger Institute is 905982. This line was supplied by a person (M.D. Ph.D of the department of “Radiation Oncology”, Stanford University Medical Center). It was cultured in Ham's F-12 and DMEM (1/1) supplemented with 10% fetal bovine serum. The experiments were performed with cells in the exponential growth phase. • Gli4 (or Gli4F11) and Gli7 are cultures of cancer strain cells derived from human glioblastomas (primary cultures). These lines are CD133^+, CD15^+ which are multipotent and tumorigenic in animals. They were established by J. P. Hugnot (INM INSERM U-1051 Eq. 4), and described in Guichet, P. O. et al, Glia 2013, 61(2), 225-239; • C6 is a rat glioblastoma line. It is referenced in the ATCC under the reference CCL-107. • MDAMB-435 is a melanoma line derived from a mammary melanoma. It forms part of the panel of 59 cancer lines referenced by the NCI. It is referenced at the ATCC under the reference HTB-129. It was cultured in Ham's F-12 and DMEM (1/1) supplemented with 10% fetal bovine serum. […]
(Tetrazolium dyes change colour on reduction, which living cells bring about.)

In a further series the test system is CaCo2. The series is described as follows: MTT antiproliferative test, CaCo2. Type of series: cell-based. As to conditions: Homo sapiens, Caco-2, read-out: IC50, inhibition of proliferation. The method, then:
(§2) The lines MDAMB-435 and A431 are seeded at a density of 3000 cells per well in 96-well plates. After 24 hours, compounds 4.2a and 5.6d resuspended in 100% DMSO are added at concentrations of 0-0.001-0.010-0.1-1-10-50 μM for a final constant amount of DMSO of 0.3%. The cultures are maintained for a further 72 hours and an MTT colorimetric test is then performed. 100 μl of a solution of MTT at 5 mg/ml in PBS are added to the culture medium, which is left to incubate for 3 hours. The culture medium is removed and the cells are lyzed by adding 100 μL of a 4 mM HCl solvent, 0.1% Nondet P-40 (NP40) in isopropanol. The yellow tetrazolium MTT salt (3-(4,5-dimethylthiazol-2-yl)-2,5-diphenyl tetrazolium bromide), when it is reduced by the mitochondrial succinate dehydrogenase of active live cells, forms a blue-violet formazan product. The medium then changes from yellow to blue-violet. The intensity of this coloration at 590 nm is proportional to the number of live cells present during the test and gives an indication of the metabolic activity of these cells.
(§3) Table 1 gives the concentration values for 50% inhibition of proliferation (IC50) for compounds 4.2a and 5.6d on lines derived from bowel cancer (CaCo2), skin cancer (A431, MDAMB-435, B16F10), breast cancer (MDAMB-431), […] (HuH7), prostate cancer (DU145) and brain cancer (SNB75, Gli4, Gli7).

Another series has as its system MDAMB-435 cells. Briefly: MDAMB-435 subcutaneous model. It is filed as in vivo, mice. The procedure: A suspension of 1×10^6 MDAMB-435 cells in 100 μl of sterile PBS (phosphate-buffered saline, supplied by Fisher) was injected into each mouse (subcutaneous administration, with anesthesia, in the mammary gland of the left hind quarter). Once a control pregroup of three mice presented the first metastases (liver, intestine, ovary), the protocol was conducted with […] of eight mice. The five groups of mice were treated using one of the five formulations described below:
Group A: Treatment by injection of 100 μl of NaCl (control N° 1).
Group B: Treatment by injection of 100 to 150 μl according to the weight of the mice of formulation 2 not containing compound 4.2a (control N° 2).
Group C: Treatment with compound 4.2a at a rate of 10 mg/kg with volumes of 100 to 150 μl of formulation 2 depending on the weight of the mice.
Group D: Treatment with compound 4.2a at a rate of 5 mg/kg with volumes of 100 to 150 μl of formulation 2 depending on the weight of the mice.
Each batch was treated by intravenous injection into the caudal vein of 100 to 150 μl of solution (precision syringe and G25X1 needle ultrafine wall, VWR). Three injections per week for four weeks were performed. The mice were weighed at each injection. The mice were sacrificed after four weeks, and the tumors and organs (liver, kidney, spleen, brain, intestine, heart, muscles) were removed. A histological analysis was performed on these organs.

The subject of a further series is Gli7. The series is described as follows: MTT antiproliferative test, Gli7. Type of series: cell-based. The settings on record: Homo sapiens, read-out: IC50, inhibition of proliferation. The method, then:
as §1

In the next series the test system is B16F10. The series is described as follows: MTT antiproliferative test, B16F10. As to conditions: Mus musculus, B16-F10, read-out: IC50, inhibition of proliferation. Type of series: cell-based. The method, then:
as §2, §3

A further series has as its system SNB75 glioblastoma line. Briefly: MTT antiproliferative test, SNB75. Type of series: cell-based. The settings on record: Homo sapiens, SNB-75, read-out: IC50, inhibition of proliferation. The method, then: as §1
For a further series, the system named is A431 line. Briefly: MTT antiproliferative test, A431. It is filed as cell-based, human. As to conditions: Homo sapiens, A-431; A431; 72 hours, MTT; read-out: IC50, inhibition of proliferation. The method, then: as §2, §3
For another series, the system named is DU145. Briefly: MTT antiproliferative test, DU145. Type of series: cell-based. As to conditions: Homo sapiens, DU-145, read-out: IC50, inhibition of proliferation. The method, then:
as §2, §3

A further series has as its system MDAMB-435 melanoma line. Briefly: MTT antiproliferative test, MDAMB-435. Type of series: cell-based. As to conditions: Homo sapiens, MDA-MB-435, 72 hours, read-out: IC50, inhibition of proliferation. The method, then: as §2, §3
Where [2] appears, read: 10 and 5 mg/kg i.v. (groups C and D), three injections per week for four weeks.

Results on one compound are retold here after patent US20150376216A1, “SUGAR-ANALOG PHOSPHORUS-CONTAINING HETEROCYCLES HAVING AN ANTI-METASTATIC ACTIVITY” (CENTRE NATIONAL DE LA RECHERCHE SCIENTIRIQUE, priority 2013, published 2015).

Consider `CC1(C)O[C@H]2[C@@H]([C@H]3COC(C)(C)O3)O[P@](=O)(c3ccccc3)[C@@H](OC(=O)c3ccccc3)[C@H]2O1` [Compound 4.2a, (SPRSRR)-3-benzoate-4-(2,2-dimethyl-[1,3]dioxolan-4-yl)-2,2-dimethyl-2-oxo-2-phenyl-tetrahydro-2λ^5-[1,2]oxaphosphinane], for which the Complexation in cyclodextrins result in series [1] is reported as “non-complexible in cyclodextrins”. The Solubility result in [1] (water, water-soluble solvents) is “insoluble in water, in numerous water-soluble solvents”. Further, the IC50 was 8.51 µM in the series on C6 glioblastoma line; above 100 µM with CaCo2; 2.71 µM in the series with Gli7; 13.5 µM in the series with B16F10; 9.54 µM in the series on SNB75 glioblastoma line; 4.35 µM with A431 line. For the same compound, the IC50 was above 100 µM in the series on DU145 and 0.66 µM with MDAMB-435 melanoma line. Besides, the “Metastases in the ovaries (FIG. 4)” value in the series with MDAMB-435 cells (10 and 5 mg/kg (groups C and D)) is given as “absence of metastases”. Also, the “Number of metastases per mouse (FIG. 5)” value in the series with MDAMB-435 cells (10 and 5 mg/kg (groups C and D), controls predominantly more than two) is “none of the mice treated with compound 4.2a (groups C and D) developed more than two metastases”. Further, the “Metastatic development (size of metastases)” value with MDAMB-435 cells (setting [2]) was “a reduction in metastatic development (small-sized metastases)”. The Number of metastases result in the series with MDAMB-435 cells (setting [2]) is listed as “a large reduction in the number of metastases”. The “Mass distribution of secondary tumors (FIG. 6)” value with MDAMB-435 cells (as a function of the treatment conditions) was “reduced the development of metastases”.
